Experimental data as given in patent publication US20230257716A1 (priority 2020, published 2023).
Entries after “also recorded” stand apart in the source; their conditions may differ.

How the values were obtained:
[1] = tested on: PR8 strain of H1N1 modified to express GFP; assay: microbe, parasite or virus in culture; type: cell-based, influenza H1N1 (in human distal lung organoids)
[2] = tested on: basal organoids; assay: Growth factor evaluation for basal organoids after sedimentation and clonogenic culture; type: cell-based, human; design: basal organoid growth: dose or concentration left out as unconfirmed
Text: (§1) Screening exogenous growth factors in organoid culture.
Density sedimentation of basal cells. Organoid cultures within 2-3 weeks of primary plating were dissociated with 1 U/ml neutral protease (Worthington, Cat LS02100) and 100 KU of DNase I in organoid media. Basal organoids were then collected by gravity sedimentation and the supernatant was either aspirated or collected for downstream use. Basal organoids were then further fractionated on a custom Ficoll-Paque gradient (4 vol Ficoll-Paque to 1 vol PBS) and centrifuged at 300×g for 10 minutes at room temperature. The supernatant was aspirated and the organoid pellet was resuspended in 10 ml PBS in a 15 ml conical tube, collected by gravity sedimentation, and plated into ECM as described above.

[3] = tested on: AT2 organoids; assay: AT2 organoid proliferation with niche factors and PORCUPINE inhibitor
Description: Screening exogenous growth factors in organoid culture. Distal airway cells were isolated and plated as above with the following exceptions: ADMEM/F12 was used instead of organoid medium during elastase digestion of lung tissue, cells were serially diluted and filtered through a 40 micron cell strainer and counted with a hemocytometer. 1000 viable epithelial cells (by Trypan blue exclusion, size, and morphology) per μL ECM were plated per 5 μL Matrigel droplet per well. Base media consisted of organoid media lacking A83-01, EGF, NOGGIN, WNT3A or RSPO1. EGF (final 50 ng/ml, R&D), NOGGIN (final 100 ng/ml, R&D), WNT3A (final 100 ng/ml, R&D), RSPO1 (final 500 ng/ml, Peprotech) or the PORCUPINE inhibitor C59 (final 1μM, Biogems) were added singly or in combination to base media. Images were obtained ten days after primary plating with an inverted light microscope at 5X magnification. Each condition was plated in quadruplicate and organoid formation was quantified using the analyze particle (threshold=4902 pixels) plugin in ImageJ as previously described.

[4] = tested on: TNFRSF12A^hi basal cells; details: basal organoids from FACS-purified TNFRSF12A^hi EPCAM+ITGA6+ITGB4+ cells, 14 days culture
Description: NOTCH manipulation in TNFRSF12A^hi basal cells. TNFRSF12A^hi basal cells were isolated and cultured as above. 24 hours after plating, media was changed to lung organoid media with either vehicle (0.1% DMSO), 1 μg/ml JAG1 peptide (Anaspec), 500 nM soluble recombinant NOTCH receptor inhibitor Delta Like Ligand 4 mutant (DLL4E12), or 1 μM gamma secretase inhibitor DBZ (Tocris). After 14 days of culture, biochemical estimation of proliferation was carried out by resazurin reduction assay (Alamar Blue, Thermo Fisher) for 16 hours according to manufacturer's protocol and resazurin reduction was measured via fluorescence readout on a Biotek Synergy H1 plate reader according to the manufacturer's protocol. Reference blank consisted of Alamar Blue reagent incubated in parallel media without cells.

[5] = tested on: TNFRSF12A^hi basal cells; details: NOTCH inhibition
Description: Quantitation of SCGB1A1 and SFTPC mRNA expression in TNFRSF12A^hi basal cells. FACS-isolated basal cells cultured in the above conditions were fixed in 2% paraformaldehyde in PBS for one hour at room temperature, embedded in HistoGel (Thermo Fisher HG-4000-012), dehydrated and paraffin embedded en bloc. One hundred serial sections were obtained at 10 micron thickness, and immunocytochemistry and in situ hybridization were performed at each 100 micron level. Confocal images were acquired in a blinded manner and organoids were defined as a cluster of 3 or greater DAPI nuclei. Channels were acquired using identical parameters for DAPI, Alexa 488 (SFTPC RNA in situ hybridization), Texas Red (SCGB1A1 RNA in situ hybridization), and Alexa 647 (KRTS immunostaining). Z-stacks were collected and images were processed in ImageJ and maximum intensity Z projections were used to quantitate SCGB1A1 and SFTPC RNA in situ in Cell Profiler using the RNA Proximity Ligase Assay counting pipeline.

[6] = tested on: human distal lung organoids; assay: Screening exogenous growth factors in distal lung organoid culture; type: cell-based; details: single cell suspensions of distal lung, feeder-free; EGF and NOGGIN in combination
Text: as §1

Compound: CC(=O)N[C@H]1[C@H]([C@H](O)[C@H](O)CO)OC(C(=O)O)=C[C@@H]1N=C(N)N [zanamivir]
- IC50 on influenza infectivity and replication (dose response curve) [1]: did not exhibit a dose response curve
- inhibition of H1N1 viral infection or replication (GFP attenuation) [1]: did not inhibit H1N1 viral infection or replication

Compound: Cc1cc(-c2ccc(CC(=O)Nc3ccc(-c4cccnc4)cc3)cc2)ccn1 [C59, reference compound]
- basal organoid growth ([2]; after d14 sedimentation, clonogenic culture, C59): growth was not significantly inhibited; also recorded: Growth was not affected
- AT2 organoid growth ([3]; PORCUPINE inhibitor C59 (1 μM)): attenuated AT2 organoid growth

Compound: Nc1ccn([C@@H]2O[C@H](CO)[C@@H](O)[C@H]2F)c(=O)n1 [FdC, 2′-deoxy-2′-fluorocytidine]
- inhibition of H1N1 viral infection or replication (GFP attenuation) [1]: efficacious with EC50 consistent with previous reports
- IC50 ([1]; Influenza A virus, read-out: IC50 on influenza infectivity and replication (dose response curve)): 340 nM

Compound: C[C@H](NC(=O)Cc1cc(F)cc(F)c1)C(=O)N[C@@H]1C(=O)N(C)c2ccccc2-c2ccccc21 [DBZ]
- proliferation (resazurin dye reduction) [4]: significantly increased proliferation
- SFTPC mRNA expression [5]: upregulating SFTPC mRNA

Compound: EGF: recombinant human EGF (R&D Systems)
- basal organoid growth with exogenous growth factors ([2]; pure basal cell cultures, EGF and Noggin together): sufficient for maximal growth
- distal lung organoid growth with exogenous growth factors [6]: optimal
- clonal AT2 organoid proliferation with exogenous growth factors ([3]; EGF and NOGGIN together, WNT-3A and RSPONDIN-1 added exogenously): sufficient for clonal AT2 organoid proliferation
